Measurements taken from ChEMBL document CHEMBL5465560, “Selectivity Literature for EUbOPEN Chemogenomic Library” (2024).

Legend:
[1] = biological target: T1, Interleukin-1 receptor-associated kinase 3 (Homo sapiens) (UniProt Q9Y616); experiment: Selectivity interaction (KinomeScan (DiscoverX)) EUB0000045b IRAK3
T1 sequence (whole entry): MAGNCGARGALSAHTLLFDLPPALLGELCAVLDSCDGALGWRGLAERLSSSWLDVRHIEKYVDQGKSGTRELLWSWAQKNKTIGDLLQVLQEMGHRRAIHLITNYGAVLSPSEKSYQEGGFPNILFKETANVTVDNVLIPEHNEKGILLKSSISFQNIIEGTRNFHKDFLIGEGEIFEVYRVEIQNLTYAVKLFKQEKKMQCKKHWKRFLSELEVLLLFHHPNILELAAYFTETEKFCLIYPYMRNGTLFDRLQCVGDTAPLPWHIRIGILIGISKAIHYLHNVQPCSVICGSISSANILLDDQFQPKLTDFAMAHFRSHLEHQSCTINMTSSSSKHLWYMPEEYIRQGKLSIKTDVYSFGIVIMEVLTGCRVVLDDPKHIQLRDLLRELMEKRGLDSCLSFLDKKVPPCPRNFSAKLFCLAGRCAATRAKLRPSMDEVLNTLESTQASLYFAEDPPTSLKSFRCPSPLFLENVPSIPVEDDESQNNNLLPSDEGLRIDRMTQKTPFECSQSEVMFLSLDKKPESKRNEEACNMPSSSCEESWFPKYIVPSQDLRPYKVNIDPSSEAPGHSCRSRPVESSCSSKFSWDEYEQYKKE

[2] = biological target: T2, Serine/threonine-protein kinase Nek1 (Homo sapiens) (UniProt Q96PY6); experiment: Selectivity interaction (KinomeScan (DiscoverX)) EUB0001049a NEK1; settings: at 1 µM
T2 sequence (whole entry): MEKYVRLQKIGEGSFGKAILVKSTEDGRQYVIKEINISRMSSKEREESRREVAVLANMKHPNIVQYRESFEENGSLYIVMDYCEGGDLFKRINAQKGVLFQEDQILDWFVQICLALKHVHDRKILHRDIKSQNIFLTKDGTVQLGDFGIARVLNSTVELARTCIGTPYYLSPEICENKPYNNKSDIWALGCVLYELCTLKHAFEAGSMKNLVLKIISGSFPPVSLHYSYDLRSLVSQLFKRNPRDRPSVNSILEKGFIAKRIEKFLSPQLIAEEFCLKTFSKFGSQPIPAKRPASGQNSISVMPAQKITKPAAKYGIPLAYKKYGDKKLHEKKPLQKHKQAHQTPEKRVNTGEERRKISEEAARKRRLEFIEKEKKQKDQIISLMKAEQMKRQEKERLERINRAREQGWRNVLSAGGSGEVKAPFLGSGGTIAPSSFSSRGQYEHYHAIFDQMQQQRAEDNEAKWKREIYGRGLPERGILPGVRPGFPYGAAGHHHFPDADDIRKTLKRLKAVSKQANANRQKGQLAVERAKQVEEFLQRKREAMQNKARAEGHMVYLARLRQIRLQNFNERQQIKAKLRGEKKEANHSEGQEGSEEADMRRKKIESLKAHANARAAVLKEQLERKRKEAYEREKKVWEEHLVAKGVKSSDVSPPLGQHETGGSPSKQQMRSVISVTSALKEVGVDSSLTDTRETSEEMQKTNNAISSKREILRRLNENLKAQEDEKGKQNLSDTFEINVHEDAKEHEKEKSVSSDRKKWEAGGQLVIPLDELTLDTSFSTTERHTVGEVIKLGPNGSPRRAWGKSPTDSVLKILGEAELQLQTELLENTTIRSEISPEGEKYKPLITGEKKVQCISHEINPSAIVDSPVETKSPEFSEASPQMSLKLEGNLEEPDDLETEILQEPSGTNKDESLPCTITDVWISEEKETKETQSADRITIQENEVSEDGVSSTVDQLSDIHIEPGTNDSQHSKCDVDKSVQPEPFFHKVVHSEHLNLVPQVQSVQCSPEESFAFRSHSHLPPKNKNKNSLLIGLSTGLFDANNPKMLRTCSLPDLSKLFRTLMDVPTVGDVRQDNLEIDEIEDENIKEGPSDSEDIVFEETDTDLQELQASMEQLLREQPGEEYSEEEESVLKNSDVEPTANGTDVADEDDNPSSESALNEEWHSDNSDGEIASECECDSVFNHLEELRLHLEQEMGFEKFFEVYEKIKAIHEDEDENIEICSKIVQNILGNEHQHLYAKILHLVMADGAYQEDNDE

[3] = biological target: Tyrosine-protein kinase CSK (Homo sapiens) (UniProt P41240); experiment: Selectivity interaction (Kinase screening (Nanosyn)) EUB0000604a CSK
Tyrosine-protein kinase CSK (Homo sapiens), sequence (P41240 2-450 limits assumed): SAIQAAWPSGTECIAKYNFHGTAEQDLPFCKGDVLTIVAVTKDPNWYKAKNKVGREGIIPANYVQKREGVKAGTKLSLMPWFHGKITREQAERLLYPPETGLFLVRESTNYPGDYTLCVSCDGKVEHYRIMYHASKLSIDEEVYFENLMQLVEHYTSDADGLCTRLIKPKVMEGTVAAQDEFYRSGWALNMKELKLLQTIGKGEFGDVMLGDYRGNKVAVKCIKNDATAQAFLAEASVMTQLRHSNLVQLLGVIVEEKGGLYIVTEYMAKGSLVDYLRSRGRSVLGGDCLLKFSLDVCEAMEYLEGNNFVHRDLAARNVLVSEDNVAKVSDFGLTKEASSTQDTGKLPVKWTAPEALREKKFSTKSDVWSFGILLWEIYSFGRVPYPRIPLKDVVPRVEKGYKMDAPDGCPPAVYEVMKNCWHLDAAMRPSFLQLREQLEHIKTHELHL

[4] = system: T3, Receptor-type tyrosine-protein kinase FLT3 (Homo sapiens), P36888 [D835Y]; experiment: Selectivity interaction (KinomeScan (DiscoverX)) EUB0000695a FLT3; settings: at 100 nM
T3 sequence (whole entry): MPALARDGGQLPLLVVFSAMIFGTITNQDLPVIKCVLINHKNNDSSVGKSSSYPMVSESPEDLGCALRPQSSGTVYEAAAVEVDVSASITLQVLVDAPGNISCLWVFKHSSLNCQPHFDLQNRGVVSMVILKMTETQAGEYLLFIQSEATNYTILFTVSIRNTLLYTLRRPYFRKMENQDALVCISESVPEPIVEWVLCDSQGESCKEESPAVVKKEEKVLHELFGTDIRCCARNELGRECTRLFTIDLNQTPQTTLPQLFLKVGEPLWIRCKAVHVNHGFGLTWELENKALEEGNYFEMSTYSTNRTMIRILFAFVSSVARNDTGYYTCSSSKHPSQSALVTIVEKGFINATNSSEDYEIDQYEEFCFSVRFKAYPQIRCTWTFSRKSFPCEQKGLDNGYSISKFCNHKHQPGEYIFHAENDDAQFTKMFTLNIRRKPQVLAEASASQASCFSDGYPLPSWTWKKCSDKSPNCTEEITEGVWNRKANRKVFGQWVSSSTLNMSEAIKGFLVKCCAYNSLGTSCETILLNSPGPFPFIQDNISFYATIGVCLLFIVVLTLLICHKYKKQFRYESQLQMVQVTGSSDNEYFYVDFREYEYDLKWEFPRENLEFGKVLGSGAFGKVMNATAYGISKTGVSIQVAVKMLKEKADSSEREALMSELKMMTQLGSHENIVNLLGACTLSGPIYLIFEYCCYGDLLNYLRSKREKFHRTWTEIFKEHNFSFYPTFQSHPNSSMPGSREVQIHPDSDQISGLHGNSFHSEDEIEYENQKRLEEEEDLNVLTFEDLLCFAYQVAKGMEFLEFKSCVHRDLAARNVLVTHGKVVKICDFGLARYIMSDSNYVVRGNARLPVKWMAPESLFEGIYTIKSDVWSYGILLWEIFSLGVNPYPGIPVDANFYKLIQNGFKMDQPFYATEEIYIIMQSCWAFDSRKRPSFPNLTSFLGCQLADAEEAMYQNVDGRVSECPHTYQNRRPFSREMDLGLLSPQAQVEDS

[5] = biological target: Ribosomal protein S6 kinase alpha-5 (Homo sapiens) (UniProt O75582); experiment: Selectivity interaction (KinomeScan (DiscoverX)) EUB0000695a RPS6KA5; settings: at 100 nM
Ribosomal protein S6 kinase alpha-5 (Homo sapiens), sequence (O75582 whole entry, looked up): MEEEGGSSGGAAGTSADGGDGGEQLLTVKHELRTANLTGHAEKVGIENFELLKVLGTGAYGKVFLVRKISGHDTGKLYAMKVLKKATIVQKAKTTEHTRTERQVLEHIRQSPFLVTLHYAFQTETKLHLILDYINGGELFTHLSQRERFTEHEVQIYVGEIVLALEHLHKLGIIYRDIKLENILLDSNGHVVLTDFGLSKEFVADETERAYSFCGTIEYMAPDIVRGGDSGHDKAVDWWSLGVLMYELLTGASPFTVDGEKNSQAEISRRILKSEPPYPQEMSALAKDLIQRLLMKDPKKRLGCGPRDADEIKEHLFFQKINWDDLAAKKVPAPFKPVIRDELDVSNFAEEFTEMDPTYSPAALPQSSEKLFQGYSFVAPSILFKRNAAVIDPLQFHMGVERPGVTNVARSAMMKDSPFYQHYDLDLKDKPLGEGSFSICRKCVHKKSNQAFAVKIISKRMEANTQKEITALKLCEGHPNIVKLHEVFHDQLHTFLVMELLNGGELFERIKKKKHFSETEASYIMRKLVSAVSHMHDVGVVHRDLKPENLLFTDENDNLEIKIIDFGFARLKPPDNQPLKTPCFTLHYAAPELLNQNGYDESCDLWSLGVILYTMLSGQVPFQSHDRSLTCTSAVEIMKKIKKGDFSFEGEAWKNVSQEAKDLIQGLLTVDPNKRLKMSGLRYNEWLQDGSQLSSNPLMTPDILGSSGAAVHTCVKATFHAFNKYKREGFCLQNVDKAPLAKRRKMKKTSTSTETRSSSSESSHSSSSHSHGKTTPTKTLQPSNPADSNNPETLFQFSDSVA

C=CC(=O)Nc1cc(-n2c(=O)ccc3cnc4ccc(-c5ccc(NS(C)(=O)=O)cc5)cc4c32)ccc1C
% of control ([1]; at 1 µM): 73% | % of control ([1]; at 10 µM): 34%

COc1cc(Nc2nc(C)cc(-c3cnn4nc(OC)ccc34)n2)cc(C(F)(F)F)c1
% of control [2]: 100%

Cc1cnc(Nc2ccc(F)cc2Cl)nc1-c1c[nH]c(C(=O)N[C@H](CO)c2cccc(Cl)c2)c1
% of inhibition [3]: 3%

Cc1cc(F)c(C(=O)Nc2cccc(-c3nncn3C(C)C)n2)cc1-n1cnc(C2CC2)c1
% of control [4]: 100% | % of control [5]: 100%
